Where “and” joins values, the source holds several entries; their conditions need not be identical. Equal entries are not always repeated. Where two headings read alike, the source gives them in different places.
How the values were obtained:
Type in all cases: cell-based
E. faecalis = assay: Synergy assay (agarose dilution, FIC); settings: E. faecalis EFS8; for Mupirocin Comb. MIC: MIC of Mupirocin in combination with the peptide; for Peptide Comb. MIC: MIC of peptide in combination with Mupirocin; for FIC: peptide + Mupirocin; for Peptide MIC: peptide alone
Method: (§1) Briefly, one assay for in vitro anti-bacterial activity, the agarose dilution assay, is set up with an array of plates that each contain a combination of peptide analogue and antibiotic in various concentrations. The plates are inoculated with bacterial isolates, incubated, and the MICs of the components recorded. […] Antibiotics used in testing include, but are not limited to, penicillins, cephalosporins, carbacephems, cephamycins, carbapenems, monobactams, aminoglycosides, glycopeptides, quinolones, tetracyclines, macrolides, and fluoroquinolones (see Table 1 below).
(§2) Synergy is calculated according to the formula below. An FIC of ≦0.5 is evidence of synergy, although combinations with higher values may be therapeutically useful. [formula]
(§3) Treatment with a combination of peptide analogues and conventional antibiotics can have a synergistic effect. Synergy is assayed using the agarose dilution technique, where an array of plates, each containing a combination of peptide and antibiotic in a unique concentration mix, is inoculated with the bacterial isolates. Synergy is investigated for peptide analogues in combination with a number of conventional antibiotics including, but not limited to, penicillins, cephalosporins, carbapenems, monobactams, aminoglycosides, macrolides, fluoroquinolones.
(§4) Synergy is expressed as a Fractional Inhibitory Concentration (FIC), which is calculated according to the equation below. An FIC of less than or equal to 0.5 is evidence of synergy, although combinations with higher values may be therapeutically useful. [formula]

P. aeruginosa = assay: Synergy assay (agarose dilution, FIC); settings: for Mupirocin Comb. MIC: MIC of Mupirocin in combination with the peptide; for Peptide Comb. MIC: MIC of peptide in combination with Mupirocin
Method: as §1, §2, §3, §4

P. vulgaris = assay: Synergy assay (agarose dilution, FIC); settings: P. vulgaris SBPV1; for Mupirocin Comb. MIC: MIC of Mupirocin in combination with the peptide; for Peptide Comb. MIC: MIC of peptide in combination with Mupirocin; for FIC: peptide + Mupirocin; for Peptide MIC: peptide alone
Method: as §1, §2, §3, §4

S. aureus = assay: Synergy assay (agarose dilution, FIC); settings: for Mupirocin Comb. MIC: MIC of Mupirocin in combination with the peptide; for Peptide Comb. MIC: MIC of peptide in combination with Mupirocin; for Peptide MIC: peptide alone; for Ciprofloxacin Comb. MIC: MIC of Ciprofloxacin in combination with the peptide; for Peptide Comb MIC: MIC of peptide in combination with Ciprofloxacin
Method: as §1, §2
as §3, with “Synergy” for “Treatment with a combination of peptide analogues and conventional antibiotics can have a synergistic effect. Synergy”
as §4

S. marcescens = assay: Synergy assay (agarose dilution, FIC); settings: for Mupirocin Comb. MIC: MIC of Mupirocin in combination with the peptide; for Peptide Comb. MIC: MIC of peptide in combination with Mupirocin; for FIC: peptide + Mupirocin; for Peptide MIC: peptide alone
Method: as §1, §2, §3, §4

E. coli = assay: Synergy assay (agarose dilution, FIC); settings: for Mupirocin Comb. MIC: MIC of Mupirocin in combination with the peptide; for Peptide Comb. MIC: MIC of peptide in combination with Mupirocin; for FIC: peptide + Mupirocin; for Peptide MIC: peptide alone
Method: as §1, §2, §3, §4

S. epidermidis = assay: Broth dilution assay (MIC); settings: S. epidermidis SE005
Method: This assay also uses calcium and magnesium supplemented Mueller Hinton broth as the growth medium. Typically 100 μl of broth is dispensed into each well of a 96-well microtitre plate and 100 μl volumes of two-fold serial dilutions of the peptide analogue are made across the plate. One row of wells receives no peptide and is used as a growth control. Each well is inoculated with approximately 5×10^5 CFU of bacteria and the plate is incubated at 35-37° C. for 16-20 hours.
For example, MIC values were established for a series of peptide analogues against S. aureus strains.

bacteria = system: bacteria
[1] = P. aeruginosa PA3, peptide + Mupirocin
[2] = S. aureus SBSA3, peptide + Mupirocin
[3] = S. aureus SBSA4, peptide + Mupirocin

## C/C(=C\C(=O)OCCCCCCCCC(=O)O)C[C@@H]1OC[C@H](C[C@@H]2O[C@H]2[C@@H](C)[C@H](C)O)[C@@H](O)[C@H]1O [Mupirocin, reference compound]
E. faecalis; Enterococcus faecalis, Mupirocin alone
  MIC: 100 µg/mL
P. aeruginosa; P. aeruginosa PA24, Mupirocin alone
  Mupirocin MIC: >100 µg/mL
P. vulgaris; Proteus vulgaris, Mupirocin alone
  MIC: 3 µg/mL
S. aureus; Staphylococcus aureus, S. aureus SBSA5, Mupirocin alone
  MIC: 30 µg/mL

## I L K K F P F F P F R R K [MBI 11A1CN]
E. faecalis
  Mupirocin Comb. MIC: 100 µg/mL
  Peptide Comb. MIC: >128 µg/mL
  FIC: 2
S. marcescens; S. marcescens SBSM1
  Mupirocin Comb. MIC: >100 µg/mL
  Peptide Comb. MIC: >128 µg/mL
  FIC: 2
P. aeruginosa; P. aeruginosa PA3
  Mupirocin Comb. MIC: >100 µg/mL
  Peptide Comb. MIC: >128 µg/mL
P. aeruginosa; [1]
  FIC: 2
E. coli; E. coli ECO1
  Mupirocin Comb. MIC: 10 µg/mL
  Peptide Comb. MIC: 4 µg/mL
  FIC: 0.14
S. epidermidis
  MIC: 16 µg/mL
S. aureus; S. aureus SBSA3
  Mupirocin Comb. MIC: 100 µg/mL
  Peptide Comb. MIC: >128 µg/mL
S. aureus; [2]
  FIC: 2
S. aureus; S. aureus SBSA5
  Mupirocin Comb. MIC: 10 µg/mL
  Peptide Comb. MIC: 32 µg/mL
S. aureus; S. aureus SBSA5, peptide + Mupirocin
  FIC: 0.58

## I L K K W P W W P W K [MBI 11G13CN]
S. marcescens; S. marcescens SBSM1
  Mupirocin Comb. MIC: >100 µg/mL
  Peptide Comb. MIC: >128 µg/mL
  FIC: 2
  Peptide MIC: >128 µg/mL
E. coli; E. coli ECO5
  Mupirocin Comb. MIC: 30 µg/mL
  Peptide Comb. MIC: 8 µg/mL
  FIC: 0.43
  Peptide MIC: 64 µg/mL
P. vulgaris
  Mupirocin Comb. MIC: 3 µg/mL
  Peptide Comb. MIC: >128 µg/mL and 64 µg/mL
  FIC: 2 and 1.25
  Peptide MIC: >128 µg/mL
S. aureus; S. aureus SBSA3
  Mupirocin Comb. MIC: 100 µg/mL
  Peptide Comb. MIC: 64 µg/mL
  Peptide MIC: 64 µg/mL
S. aureus; [2]
  FIC: 2

## I L K K W P W W P W R K [MBI 11B4CN]
E. faecalis
  Mupirocin Comb. MIC: 100 µg/mL
  Peptide Comb. MIC: 64 µg/mL
  FIC: 2
  Peptide MIC: 64 µg/mL
S. marcescens; S. marcescens SBSM1
  Mupirocin Comb. MIC: >100 µg/mL
  Peptide Comb. MIC: >128 µg/mL
  FIC: 2
  Peptide MIC: >128 µg/mL
E. coli; E. coli ECO1
  Mupirocin Comb. MIC: 10 µg/mL
  Peptide Comb. MIC: 4 µg/mL
  FIC: 0.26
  Peptide MIC: 16 µg/mL
S. aureus; S. aureus SBSA3
  Mupirocin Comb. MIC: 10 µg/mL
  Peptide Comb. MIC: 16 µg/mL
  Peptide MIC: 32 µg/mL
S. aureus; [2]
  FIC: 0.60
S. aureus; S. aureus SBSA4
  Mupirocin Comb. MIC: >100 µg/mL
  Peptide Comb. MIC: 8 µg/mL
  Peptide MIC: 8 µg/mL
S. aureus; [3]
  FIC: 2

## I L K K W P W W P W R R K [MBI 11CAN]
bacteria; A. calcoaceticus AC002, listed as MBI 11ACN
  MIC: 2 µg/mL
bacteria; E. coli ECO005, listed as MBI 11ACN
  MIC: 16 µg/mL
bacteria; E. faecalis EFS004, listed as MBI 11ACN
  MIC: 8 µg/mL
bacteria; K. pneumoniae KP001, listed as MBI 11ACN
  MIC: 16 µg/mL
bacteria; S. epidermidis SE010, listed as MBI 11ACN
  MIC: 4 µg/mL
bacteria; S. maltophilia SMA002, listed as MBI 11ACN
  MIC: 64 µg/mL

## I L K K Y P Y Y P Y R R K [MBI 11A3CN]
E. faecalis
  Mupirocin Comb. MIC: 100 µg/mL
  Peptide Comb. MIC: >128 µg/mL
  FIC: 2
S. marcescens; S. marcescens SBSM2
  Mupirocin Comb. MIC: >100 µg/mL
  Peptide Comb. MIC: >128 µg/mL
  FIC: 2
P. aeruginosa; P. aeruginosa PA3
  Mupirocin Comb. MIC: >100 µg/mL
  Peptide Comb. MIC: >128 µg/mL
P. aeruginosa; [1]
  FIC: 2
E. coli; E. coli SBECO1
  Mupirocin Comb. MIC: 30 µg/mL
  Peptide Comb. MIC: 8 µg/mL
  FIC: 0.43
S. aureus; S. aureus SBSA2
  Mupirocin Comb. MIC: >100 µg/mL
  Peptide Comb. MIC: 128 µg/mL
S. aureus; S. aureus SBSA2, peptide + Mupirocin
  FIC: 2

## K R R W V W W V W R L I [MBI 11F4CNR]
bacteria; S. epidermidis SE010
  MIC: 8 µg/mL

## W R I W K P K W R L P K W [MBI 11D18CN]
E. faecalis
  Mupirocin Comb. MIC: 100 µg/mL
  Peptide Comb. MIC: 16 µg/mL
  FIC: 2
  Peptide MIC: 16 µg/mL
S. marcescens; S. marcescens SBSM1
  Mupirocin Comb. MIC: 30 µg/mL
  Peptide Comb. MIC: 64 µg/mL
  FIC: 0.28
  Peptide MIC: >128 µg/mL
P. aeruginosa; P. aeruginosa PA2
  Mupirocin Comb. MIC: 30 µg/mL
  Peptide Comb. MIC: 64 µg/mL
P. aeruginosa; P. aeruginosa PA2, peptide + Mupirocin
  FIC: 0.53
P. aeruginosa; P. aeruginosa PA2, peptide alone
  Peptide MIC: 128 µg/mL
P. aeruginosa; P. aeruginosa PA24, MIC of Ciprofloxacin in combination with the peptide
  Ciprofloxacin Comb. MIC: 4 µg/mL
P. aeruginosa; P. aeruginosa PA24
  Mupirocin Comb. MIC: >100 µg/mL
  Peptide Comb. MIC: >128 µg/mL
P. aeruginosa; P. aeruginosa PA24, MIC of peptide in combination with Ciprofloxacin
  Peptide Comb MIC: 16 µg/mL
P. aeruginosa; P. aeruginosa PA24, peptide + Ciprofloxacin
  FIC: 0.31
P. aeruginosa; P. aeruginosa PA24, peptide + Mupirocin
  FIC: 2
P. aeruginosa; P. aeruginosa PA24, peptide alone (Ciprofloxacin table)
  Peptide MIC: >128 µg/mL
P. aeruginosa; P. aeruginosa PA24, peptide alone (Mupirocin table)
  Peptide MIC: >128 µg/mL
E. coli; E. coli SBECO2
  Mupirocin Comb. MIC: 10 µg/mL
  Peptide Comb. MIC: 1 µg/mL
  FIC: 0.07
  Peptide MIC: 16 µg/mL
P. vulgaris
  Mupirocin Comb. MIC: 3 µg/mL
  Peptide Comb. MIC: 4 µg/mL
  FIC: 1.13
  Peptide MIC: 32 µg/mL
S. aureus; S. aureus SA10
  Ciprofloxacin Comb. MIC: 32 µg/mL
  Peptide Comb MIC: 2 µg/mL
  Peptide MIC: 2 µg/mL
S. aureus; S. aureus SA10, peptide + Ciprofloxacin
  FIC: 2.00
S. aureus; S. aureus SA14
  Ciprofloxacin Comb. MIC: 8 µg/mL
  Peptide Comb MIC: 4 µg/mL
  Peptide MIC: 8 µg/mL
S. aureus; S. aureus SA14, peptide + Ciprofloxacin
  FIC: 1.00
S. aureus; S. aureus SBSA4
  Mupirocin Comb. MIC: 0.1 µg/mL
  Peptide Comb. MIC: 2 µg/mL
  Peptide MIC: 16 µg/mL
S. aureus; [3]
  FIC: 0.13
